Measured values from ChEMBL document CHEMBL4007472, “Identification of novel TACE inhibitors compatible with topical application” (Bioorg Med Chem Lett, 2017).
≈ marks a conversion by molar mass, not a printed value.

Tests used:
[1] = Aqueous solubility of the compound; format: physicochemical
[2] = target: T1, Disintegrin and metalloproteinase domain-containing protein 17 (Homo sapiens, UniProt P78536); experiment: Inhibition of recombinant human TACE catalytic domain using Mca-Pro-Leu-Ala-Gln-Ala-Val-Dpa-Arg-Ser-Ser-Ser-Arg-NH2 as substrate after 2 hrs by fluorescence assay
[3] = target: T1, Disintegrin and metalloproteinase domain-containing protein 17; experiment: Inhibition of TACE in human PBMC assessed as inhibition of TNFalpha production
[4] = target: T1, Disintegrin and metalloproteinase domain-containing protein 17; experiment: Inhibition of TACE in NHEK assessed as reduction in LPS/TPA-stimulated TNFalpha production preincubated for 1 hr followed by LPS/TPA stimulation for 24 hrs by HTRF assay
Interstitial collagenase = target: T2, Interstitial collagenase (Homo sapiens, UniProt P03956); experiment: Inhibition of recombinant human MMP1 catalytic domain using Mca-Pro-Leu-Gly-Leu-Dpa-Ala-Arg-NH2 as substrate after 10 mins by fluorescence assay
T2 sequence (P03956 whole entry): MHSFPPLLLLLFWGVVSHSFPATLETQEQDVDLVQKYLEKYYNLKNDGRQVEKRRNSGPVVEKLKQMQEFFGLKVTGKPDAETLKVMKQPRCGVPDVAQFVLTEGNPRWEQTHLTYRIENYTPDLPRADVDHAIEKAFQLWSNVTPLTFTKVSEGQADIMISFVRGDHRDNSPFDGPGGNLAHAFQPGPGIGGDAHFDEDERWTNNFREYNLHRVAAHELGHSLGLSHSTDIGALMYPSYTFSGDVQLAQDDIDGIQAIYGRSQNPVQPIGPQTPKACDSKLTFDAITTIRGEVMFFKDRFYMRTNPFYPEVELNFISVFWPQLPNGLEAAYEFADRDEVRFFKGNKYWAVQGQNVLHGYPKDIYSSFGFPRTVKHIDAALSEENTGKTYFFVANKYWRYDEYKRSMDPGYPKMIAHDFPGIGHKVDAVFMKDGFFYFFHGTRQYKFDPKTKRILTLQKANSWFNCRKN

[5] = Half life in human keratinocytes at 1 uM by LC-MS/MS analysis; format: ADME, cell-based, Keratinocyte
[6] = Stability in human liver microsomes assessed as parent compound remaining at 1 uM after 15 mins by LC-MS/MS analysis; format: ADME, microsome; settings: read-out: Stability
[7] = target: Macrophage metalloelastase (Homo sapiens, UniProt P39900); experiment: Inhibition of MMP12 (unknown origin)
[8] = Photoirritancy factor, ratio of EC50 for human neonatal keratinocytes under dark condition to EC50 for human neonatal keratinocytes under 5 J/cm2 UV light exposure; parameters: species or system Neonatal keratinocyte
[9] = target: T3, Disintegrin and metalloproteinase domain-containing protein 10 (Homo sapiens, UniProt O14672); experiment: Inhibition of ADAM10 (unknown origin)
T3 sequence (O14672 whole entry): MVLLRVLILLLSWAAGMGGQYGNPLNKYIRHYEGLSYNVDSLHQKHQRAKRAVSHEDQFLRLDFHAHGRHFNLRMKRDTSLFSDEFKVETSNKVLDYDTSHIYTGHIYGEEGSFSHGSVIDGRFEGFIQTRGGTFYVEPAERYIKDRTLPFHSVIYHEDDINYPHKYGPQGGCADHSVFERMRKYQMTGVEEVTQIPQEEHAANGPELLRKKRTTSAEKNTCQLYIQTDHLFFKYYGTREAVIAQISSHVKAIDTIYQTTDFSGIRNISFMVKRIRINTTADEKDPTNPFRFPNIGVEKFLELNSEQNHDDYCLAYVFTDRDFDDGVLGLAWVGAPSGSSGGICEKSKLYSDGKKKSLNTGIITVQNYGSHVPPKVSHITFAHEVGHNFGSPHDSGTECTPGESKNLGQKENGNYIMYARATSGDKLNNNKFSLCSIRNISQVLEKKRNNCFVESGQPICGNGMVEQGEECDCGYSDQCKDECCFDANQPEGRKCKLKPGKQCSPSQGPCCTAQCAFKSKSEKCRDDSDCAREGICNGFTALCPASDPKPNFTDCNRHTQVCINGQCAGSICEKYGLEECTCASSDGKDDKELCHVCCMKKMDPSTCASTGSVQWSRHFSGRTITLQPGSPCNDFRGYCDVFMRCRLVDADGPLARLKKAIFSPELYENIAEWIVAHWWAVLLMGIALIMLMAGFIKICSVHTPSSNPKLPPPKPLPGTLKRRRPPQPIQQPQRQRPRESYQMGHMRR

[10] = target: Matrix metalloproteinase-9 (Homo sapiens, UniProt P14780); experiment: Inhibition of MMP9 (unknown origin)
[11] = Solubility of the compound in PG/EtOH96; format: physicochemical
[12] = Fraction unbound in human plasma at 5 uM after 4 hrs by LC-MS/MS based equilibrium dialysis method; format: ADME, cell-free
[13] = target: T4, Disintegrin and metalloproteinase domain-containing protein 9 (Homo sapiens, UniProt Q13443); experiment: Inhibition of ADAM9 (unknown origin)
T4 sequence (Q13443 whole entry): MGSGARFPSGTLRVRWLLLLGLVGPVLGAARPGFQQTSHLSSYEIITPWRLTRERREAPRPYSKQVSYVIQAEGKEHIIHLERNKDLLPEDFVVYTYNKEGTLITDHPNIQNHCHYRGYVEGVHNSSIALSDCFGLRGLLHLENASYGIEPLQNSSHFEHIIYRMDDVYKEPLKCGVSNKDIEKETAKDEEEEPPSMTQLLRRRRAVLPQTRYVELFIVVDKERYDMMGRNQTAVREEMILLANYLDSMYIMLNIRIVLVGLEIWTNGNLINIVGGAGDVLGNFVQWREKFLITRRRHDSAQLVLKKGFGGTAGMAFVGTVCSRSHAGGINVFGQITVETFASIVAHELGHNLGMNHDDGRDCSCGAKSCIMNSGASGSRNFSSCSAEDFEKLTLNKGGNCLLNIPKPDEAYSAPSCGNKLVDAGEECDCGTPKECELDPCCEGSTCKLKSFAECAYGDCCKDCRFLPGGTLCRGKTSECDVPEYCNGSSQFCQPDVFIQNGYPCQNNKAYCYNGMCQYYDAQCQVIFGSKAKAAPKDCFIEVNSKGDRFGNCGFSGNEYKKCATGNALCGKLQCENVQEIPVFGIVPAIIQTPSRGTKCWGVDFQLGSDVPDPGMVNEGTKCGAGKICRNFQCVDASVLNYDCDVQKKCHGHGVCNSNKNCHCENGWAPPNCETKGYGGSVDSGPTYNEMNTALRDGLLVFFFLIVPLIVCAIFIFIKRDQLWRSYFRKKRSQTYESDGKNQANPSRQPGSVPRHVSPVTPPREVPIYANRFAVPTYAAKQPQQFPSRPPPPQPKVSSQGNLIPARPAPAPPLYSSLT

[14] = Intrinsic clearance in human hepatocytes assessed per million cells at 1 uM up to 90 mins by LC-MS/MS analysis; format: ADME, cell-based, Hepatocyte; settings: read-out: CLH
Stromelysin-1 = Stromelysin-1 (Homo sapiens, UniProt P08254); experiment: Inhibition of MMP3 (unknown origin)
Chain of Stromelysin-1 (P08254 whole entry): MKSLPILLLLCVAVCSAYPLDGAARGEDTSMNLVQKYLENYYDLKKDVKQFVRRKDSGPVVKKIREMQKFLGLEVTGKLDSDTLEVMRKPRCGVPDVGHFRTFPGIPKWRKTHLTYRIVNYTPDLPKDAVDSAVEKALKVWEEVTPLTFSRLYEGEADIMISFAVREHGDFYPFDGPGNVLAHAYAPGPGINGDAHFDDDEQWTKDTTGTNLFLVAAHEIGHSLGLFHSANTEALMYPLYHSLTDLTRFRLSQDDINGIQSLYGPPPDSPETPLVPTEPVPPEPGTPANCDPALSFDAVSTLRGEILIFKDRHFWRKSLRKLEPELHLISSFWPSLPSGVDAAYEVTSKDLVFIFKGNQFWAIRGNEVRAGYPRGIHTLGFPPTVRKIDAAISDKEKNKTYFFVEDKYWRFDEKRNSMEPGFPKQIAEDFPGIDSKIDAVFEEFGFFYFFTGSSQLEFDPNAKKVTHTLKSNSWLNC

T1 sequence (P78536 whole entry, the tested form may be a part): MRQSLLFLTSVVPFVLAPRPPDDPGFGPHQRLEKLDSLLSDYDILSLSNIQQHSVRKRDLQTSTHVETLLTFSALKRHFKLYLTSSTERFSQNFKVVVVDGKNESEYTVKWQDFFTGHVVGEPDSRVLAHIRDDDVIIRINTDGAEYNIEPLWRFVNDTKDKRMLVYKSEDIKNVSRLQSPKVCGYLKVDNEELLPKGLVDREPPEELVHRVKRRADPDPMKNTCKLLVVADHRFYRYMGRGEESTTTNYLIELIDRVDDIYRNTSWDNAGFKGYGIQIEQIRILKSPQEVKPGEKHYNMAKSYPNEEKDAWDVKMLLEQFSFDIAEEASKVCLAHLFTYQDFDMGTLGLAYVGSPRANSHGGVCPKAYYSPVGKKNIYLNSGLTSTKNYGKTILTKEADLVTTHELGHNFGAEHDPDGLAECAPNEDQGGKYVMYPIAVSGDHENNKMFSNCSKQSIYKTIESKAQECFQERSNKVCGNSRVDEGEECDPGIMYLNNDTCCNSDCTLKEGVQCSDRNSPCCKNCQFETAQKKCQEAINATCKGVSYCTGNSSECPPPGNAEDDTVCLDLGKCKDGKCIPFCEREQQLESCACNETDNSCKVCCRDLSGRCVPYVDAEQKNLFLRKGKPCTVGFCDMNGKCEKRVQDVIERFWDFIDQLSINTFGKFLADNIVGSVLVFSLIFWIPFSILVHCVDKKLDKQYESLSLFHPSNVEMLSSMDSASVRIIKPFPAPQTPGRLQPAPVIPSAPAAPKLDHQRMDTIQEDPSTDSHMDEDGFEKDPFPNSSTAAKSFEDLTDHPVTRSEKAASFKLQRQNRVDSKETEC
Chain of Macrophage metalloelastase (P39900 whole entry): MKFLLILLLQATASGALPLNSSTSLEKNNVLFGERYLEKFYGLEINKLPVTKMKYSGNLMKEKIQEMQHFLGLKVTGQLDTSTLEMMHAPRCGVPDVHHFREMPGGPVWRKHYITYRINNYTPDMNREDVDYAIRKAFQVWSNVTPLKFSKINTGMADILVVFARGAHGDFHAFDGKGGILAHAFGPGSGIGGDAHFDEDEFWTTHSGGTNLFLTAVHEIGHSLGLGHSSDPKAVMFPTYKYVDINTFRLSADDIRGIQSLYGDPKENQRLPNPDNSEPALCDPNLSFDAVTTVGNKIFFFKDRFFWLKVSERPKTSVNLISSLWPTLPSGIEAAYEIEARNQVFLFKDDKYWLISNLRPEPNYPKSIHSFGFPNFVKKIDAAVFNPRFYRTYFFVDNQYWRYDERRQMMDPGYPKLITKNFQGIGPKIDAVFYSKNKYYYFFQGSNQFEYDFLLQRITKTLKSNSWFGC
Chain of Matrix metalloproteinase-9 (P14780 whole entry): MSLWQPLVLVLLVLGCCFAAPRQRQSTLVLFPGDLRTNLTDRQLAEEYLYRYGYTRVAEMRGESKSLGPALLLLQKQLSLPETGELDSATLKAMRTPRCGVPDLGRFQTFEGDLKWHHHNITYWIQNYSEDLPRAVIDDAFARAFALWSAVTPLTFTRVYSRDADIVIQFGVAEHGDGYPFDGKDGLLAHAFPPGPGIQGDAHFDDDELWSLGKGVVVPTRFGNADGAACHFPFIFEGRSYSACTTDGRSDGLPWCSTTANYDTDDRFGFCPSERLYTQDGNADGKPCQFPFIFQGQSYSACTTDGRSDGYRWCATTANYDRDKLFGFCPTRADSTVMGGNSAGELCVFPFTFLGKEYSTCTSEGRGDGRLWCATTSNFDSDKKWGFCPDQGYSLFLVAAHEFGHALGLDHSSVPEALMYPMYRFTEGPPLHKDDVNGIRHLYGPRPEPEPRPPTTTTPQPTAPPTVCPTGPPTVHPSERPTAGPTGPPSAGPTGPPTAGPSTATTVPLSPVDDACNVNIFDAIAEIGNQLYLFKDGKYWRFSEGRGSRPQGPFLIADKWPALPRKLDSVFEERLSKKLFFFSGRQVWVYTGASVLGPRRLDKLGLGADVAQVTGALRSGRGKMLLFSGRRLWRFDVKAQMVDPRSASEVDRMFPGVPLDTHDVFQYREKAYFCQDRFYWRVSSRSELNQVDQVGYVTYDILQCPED

solubility [1] [µM]	IC50 [2] [nM]	IC50 [3] [nM]	IC50 [4] [nM]	IC50 (Interstitial collagenase) [nM]	half-life at 1 µM [5] [h]	remaining at […], 1 µM [6] [%]	IC50 [7] [nM]	IC50 [9] [nM]	IC50 [10] [nM]	solubility [11] [µM]	fraction unbound at 4 h, 5 µM [12]	IC50 [13] [nM]	hepatocyte CLint at […], 1 µM [14] [µL/min/1e6 cells]	IC50 (Stromelysin-1) [nM]	Structure (SMILES)	Ratio EC50 [8]
90 (≈ 37.3 µg/mL)	4	158	120	–	–	–	–	–	–	–	–	–	–	–	CC1(C)SCCN(S(=O)(=O)c2ccc(OCC#CCO)cc2)[C@H]1C(=O)NO	–
20 (≈ 10.9 µg/mL)	12	–	1300	> 10000	> 24	47	930	> 10000	> 10000	> 55	0.03	> 10000	14	> 10000	Cc1cc(COc2ccc(S(=O)(=O)N3CCN(C(=O)C(C)(C)C)C(C(=O)NO)C3)cc2)c2c(n1)CCCC2 (centres undefined)	1
